Measured values from patent US20220233713A1, “SONODYNAMIC THERAPY” (priority 2019, published 2022).
Where a name gives a salt, the structure may show the parent alone.

System: BxPC-3 tumours
Experiment: In vivo BxPC-3 xenograft model, tumour growth
Parameters: species or system SCID mice
Settings: 100 μL I.P. injection, Gem HCl 120 mg/kg (scaled clinical dose); FIG. 7
Procedure: All animals in these studies were treated humanely and in accordance with licensed protocols under the Animals (Scientific Procedures) Act 1986 (UK). BxPc-3 cells were maintained in RPMI 1640 media supplemented with 100 U/mL penicillin, […] streptomycin, and 10% fetal bovine serum (FBS) in a humidified 5% CO2 atmosphere at 37° C. Cells (1×10^6) were re-suspended in Matrigel® and implanted subcutaneously into the rear dorsum of SCID (C.B-17/IcrHan@Hsd-Prkdcscid) mice. Tumours reached treatable size within 3 weeks. Tumour measurements were taken daily using callipers. Once the tumours had reached an average volume of 150 mm^3 animals were randomly assigned into treatment groups. Animals were anaesthetised using isoflurane with medical grade oxygen as the carrier gas. […] As control groups, animals were treated with a 100 μL I.P injection of either (i) gemcitabine hydrochloride (120 mg/kg) or (ii) gemcitabine hydrochloride (120 mg/kg) and PTX (15 mg/kg). Ultrasound was applied directly to the tumour immediately following injection at an ultrasound frequency of 1 MHz, an ultrasound power density of 3.5 W/cm^2 and a duty cycle of 30% for 3.5 min. Tumour volume was measured using callipers and calculated using the formula: V=L×W×H/2.

For `Nc1ccn([C@@H]2O[C@H](CO)[C@@H](O)C2(F)F)c(=O)n1` [Gem HCl, gemcitabine hydrochloride], the tumour growth control was “significantly controls tumour growth progression”.
